Experimental data reported in ChEMBL document CHEMBL5291721, “A preclinical secondary pharmacology resource illuminates target-adverse drug reaction associations of marketed drugs” (Nat Commun, 2023).

How the values were obtained:
[1] = target: Voltage-dependent L-type calcium channel subunit alpha-1C (Rattus norvegicus, UniProt P22002); type: functional
[2] = target: Beta-2 adrenergic receptor (Homo sapiens, UniProt P07550)
[3] = target: Cannabinoid receptor 1 (Homo sapiens, UniProt P21554); type: functional, cell-based
Sequence of Cannabinoid receptor 1 (P21554 whole entry): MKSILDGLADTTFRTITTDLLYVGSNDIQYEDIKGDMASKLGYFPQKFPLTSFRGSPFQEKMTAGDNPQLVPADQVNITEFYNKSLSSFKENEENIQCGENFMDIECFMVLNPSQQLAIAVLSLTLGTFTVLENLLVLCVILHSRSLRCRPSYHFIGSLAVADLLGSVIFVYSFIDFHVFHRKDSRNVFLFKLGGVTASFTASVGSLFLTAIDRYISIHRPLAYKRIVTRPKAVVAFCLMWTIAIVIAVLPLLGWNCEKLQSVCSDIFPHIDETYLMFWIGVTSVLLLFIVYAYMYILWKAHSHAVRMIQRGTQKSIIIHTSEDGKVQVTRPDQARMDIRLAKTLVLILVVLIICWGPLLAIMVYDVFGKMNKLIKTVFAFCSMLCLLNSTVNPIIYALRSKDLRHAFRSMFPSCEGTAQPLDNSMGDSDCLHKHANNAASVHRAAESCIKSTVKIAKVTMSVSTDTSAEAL

[4] = target: T1, Progesterone receptor (Homo sapiens, UniProt P06401); type: functional
T1 sequence (P06401 whole entry): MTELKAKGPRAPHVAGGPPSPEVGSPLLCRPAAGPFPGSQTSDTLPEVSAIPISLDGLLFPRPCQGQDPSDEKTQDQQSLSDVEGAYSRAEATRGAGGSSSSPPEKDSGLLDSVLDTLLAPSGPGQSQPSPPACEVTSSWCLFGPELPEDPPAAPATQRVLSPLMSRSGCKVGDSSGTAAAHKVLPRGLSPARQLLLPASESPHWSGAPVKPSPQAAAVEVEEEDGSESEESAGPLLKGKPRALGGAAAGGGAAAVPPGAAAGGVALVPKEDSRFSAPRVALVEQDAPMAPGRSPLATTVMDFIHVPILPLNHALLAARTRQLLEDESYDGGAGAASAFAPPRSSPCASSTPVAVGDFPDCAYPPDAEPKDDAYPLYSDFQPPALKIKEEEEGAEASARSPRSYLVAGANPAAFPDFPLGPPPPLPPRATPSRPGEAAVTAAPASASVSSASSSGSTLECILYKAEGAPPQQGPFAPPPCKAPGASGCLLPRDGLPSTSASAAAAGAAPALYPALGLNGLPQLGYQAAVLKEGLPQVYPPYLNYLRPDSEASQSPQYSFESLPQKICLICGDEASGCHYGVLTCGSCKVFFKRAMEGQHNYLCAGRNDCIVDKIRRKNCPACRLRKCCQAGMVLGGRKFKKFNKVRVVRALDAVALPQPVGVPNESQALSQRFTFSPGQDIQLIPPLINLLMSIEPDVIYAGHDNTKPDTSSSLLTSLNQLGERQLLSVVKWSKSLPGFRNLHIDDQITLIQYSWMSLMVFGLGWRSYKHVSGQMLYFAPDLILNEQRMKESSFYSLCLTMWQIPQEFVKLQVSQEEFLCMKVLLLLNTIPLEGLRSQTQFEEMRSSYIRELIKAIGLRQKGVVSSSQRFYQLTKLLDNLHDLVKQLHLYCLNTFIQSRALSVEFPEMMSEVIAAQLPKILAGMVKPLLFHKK

[5] = target: T2, Endothelin-1 receptor (Homo sapiens, UniProt P25101)
T2 sequence (P25101 whole entry): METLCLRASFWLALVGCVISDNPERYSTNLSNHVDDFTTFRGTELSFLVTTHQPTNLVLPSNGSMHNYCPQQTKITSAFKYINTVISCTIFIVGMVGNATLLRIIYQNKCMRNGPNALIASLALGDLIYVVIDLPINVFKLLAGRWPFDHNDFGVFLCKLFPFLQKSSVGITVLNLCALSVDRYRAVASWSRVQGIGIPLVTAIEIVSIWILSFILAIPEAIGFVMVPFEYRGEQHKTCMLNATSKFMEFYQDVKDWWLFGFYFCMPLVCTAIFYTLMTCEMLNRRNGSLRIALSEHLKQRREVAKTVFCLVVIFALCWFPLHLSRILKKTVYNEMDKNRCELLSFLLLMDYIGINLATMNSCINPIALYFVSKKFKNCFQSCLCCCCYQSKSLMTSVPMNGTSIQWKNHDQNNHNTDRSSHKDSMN

[6] = target: Glutamate receptor ionotropic, NMDA 1 (Rattus norvegicus, UniProt P35439)
[7] = target: T3, 5-hydroxytryptamine receptor 3A (Homo sapiens, UniProt P46098); type: functional
T3 sequence (P46098 whole entry): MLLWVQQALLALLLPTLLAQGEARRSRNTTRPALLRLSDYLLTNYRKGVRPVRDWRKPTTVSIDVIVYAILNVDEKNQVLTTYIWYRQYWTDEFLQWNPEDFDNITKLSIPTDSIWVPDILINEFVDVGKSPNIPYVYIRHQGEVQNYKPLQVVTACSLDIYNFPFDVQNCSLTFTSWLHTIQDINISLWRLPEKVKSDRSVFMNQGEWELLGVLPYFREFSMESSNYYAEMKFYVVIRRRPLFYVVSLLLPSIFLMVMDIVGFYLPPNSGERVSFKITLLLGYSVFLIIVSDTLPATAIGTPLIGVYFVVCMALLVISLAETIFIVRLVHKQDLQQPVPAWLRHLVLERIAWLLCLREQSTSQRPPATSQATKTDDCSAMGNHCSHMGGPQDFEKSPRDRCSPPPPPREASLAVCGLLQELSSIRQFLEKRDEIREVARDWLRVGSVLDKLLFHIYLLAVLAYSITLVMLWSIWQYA

[8] = target: D(3) dopamine receptor (Homo sapiens, UniProt P35462)
Sequence of D(3) dopamine receptor (P35462 whole entry): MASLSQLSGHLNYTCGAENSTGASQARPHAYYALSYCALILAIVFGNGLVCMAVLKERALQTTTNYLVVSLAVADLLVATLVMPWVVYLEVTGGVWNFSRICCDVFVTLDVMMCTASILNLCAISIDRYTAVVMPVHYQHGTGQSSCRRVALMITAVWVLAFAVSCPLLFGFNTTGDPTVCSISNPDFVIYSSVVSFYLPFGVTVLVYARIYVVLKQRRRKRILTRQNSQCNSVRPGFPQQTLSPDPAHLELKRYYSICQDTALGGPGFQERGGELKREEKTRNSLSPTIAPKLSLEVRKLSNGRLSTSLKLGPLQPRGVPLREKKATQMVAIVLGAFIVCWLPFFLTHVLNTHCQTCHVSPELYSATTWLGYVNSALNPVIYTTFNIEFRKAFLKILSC

[9] = target: Sodium-dependent noradrenaline transporter (Homo sapiens, UniProt P23975)
Sequence of Sodium-dependent noradrenaline transporter (P23975 whole entry): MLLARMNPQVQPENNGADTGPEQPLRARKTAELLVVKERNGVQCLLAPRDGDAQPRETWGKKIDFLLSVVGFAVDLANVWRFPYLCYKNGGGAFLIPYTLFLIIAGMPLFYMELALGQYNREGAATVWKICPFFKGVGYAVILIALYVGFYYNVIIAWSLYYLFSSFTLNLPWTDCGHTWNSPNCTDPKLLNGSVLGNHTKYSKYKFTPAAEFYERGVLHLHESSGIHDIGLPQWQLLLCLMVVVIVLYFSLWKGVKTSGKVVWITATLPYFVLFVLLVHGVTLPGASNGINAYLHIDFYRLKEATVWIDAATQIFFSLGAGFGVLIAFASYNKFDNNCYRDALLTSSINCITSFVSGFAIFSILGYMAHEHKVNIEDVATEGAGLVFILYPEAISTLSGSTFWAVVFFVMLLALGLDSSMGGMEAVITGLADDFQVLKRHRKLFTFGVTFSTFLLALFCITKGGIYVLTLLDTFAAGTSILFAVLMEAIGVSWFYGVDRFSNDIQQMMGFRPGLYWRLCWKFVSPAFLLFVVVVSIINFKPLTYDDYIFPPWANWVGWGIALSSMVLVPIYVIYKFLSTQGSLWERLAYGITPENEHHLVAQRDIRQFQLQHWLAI

[10] = target: Melanocortin receptor 3 (Homo sapiens, UniProt P41968)
Sequence of Melanocortin receptor 3 (P41968 whole entry): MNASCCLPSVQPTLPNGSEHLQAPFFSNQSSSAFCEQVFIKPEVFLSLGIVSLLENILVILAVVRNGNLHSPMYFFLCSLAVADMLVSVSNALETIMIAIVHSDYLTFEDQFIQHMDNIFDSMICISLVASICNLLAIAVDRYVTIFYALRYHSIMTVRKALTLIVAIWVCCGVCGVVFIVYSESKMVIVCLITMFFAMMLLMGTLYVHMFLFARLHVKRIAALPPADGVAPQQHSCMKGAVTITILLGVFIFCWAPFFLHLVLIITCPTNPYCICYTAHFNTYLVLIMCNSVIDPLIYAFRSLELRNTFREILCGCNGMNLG

[11] = target: Motilin receptor (Homo sapiens, UniProt O43193)
Sequence of Motilin receptor (O43193 whole entry): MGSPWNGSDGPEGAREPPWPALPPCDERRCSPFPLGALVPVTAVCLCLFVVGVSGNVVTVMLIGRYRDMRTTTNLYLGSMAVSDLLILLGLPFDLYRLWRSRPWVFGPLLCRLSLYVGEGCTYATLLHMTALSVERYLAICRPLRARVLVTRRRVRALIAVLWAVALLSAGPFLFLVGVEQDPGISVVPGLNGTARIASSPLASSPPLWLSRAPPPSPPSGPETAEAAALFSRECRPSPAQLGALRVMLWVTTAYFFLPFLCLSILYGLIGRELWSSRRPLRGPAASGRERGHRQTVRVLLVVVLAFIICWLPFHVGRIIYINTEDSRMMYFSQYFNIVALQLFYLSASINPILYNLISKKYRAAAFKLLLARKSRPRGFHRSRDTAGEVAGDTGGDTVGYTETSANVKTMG

[12] = target: T4, Estrogen receptor (Homo sapiens, UniProt P03372)
T4 sequence (P03372 whole entry): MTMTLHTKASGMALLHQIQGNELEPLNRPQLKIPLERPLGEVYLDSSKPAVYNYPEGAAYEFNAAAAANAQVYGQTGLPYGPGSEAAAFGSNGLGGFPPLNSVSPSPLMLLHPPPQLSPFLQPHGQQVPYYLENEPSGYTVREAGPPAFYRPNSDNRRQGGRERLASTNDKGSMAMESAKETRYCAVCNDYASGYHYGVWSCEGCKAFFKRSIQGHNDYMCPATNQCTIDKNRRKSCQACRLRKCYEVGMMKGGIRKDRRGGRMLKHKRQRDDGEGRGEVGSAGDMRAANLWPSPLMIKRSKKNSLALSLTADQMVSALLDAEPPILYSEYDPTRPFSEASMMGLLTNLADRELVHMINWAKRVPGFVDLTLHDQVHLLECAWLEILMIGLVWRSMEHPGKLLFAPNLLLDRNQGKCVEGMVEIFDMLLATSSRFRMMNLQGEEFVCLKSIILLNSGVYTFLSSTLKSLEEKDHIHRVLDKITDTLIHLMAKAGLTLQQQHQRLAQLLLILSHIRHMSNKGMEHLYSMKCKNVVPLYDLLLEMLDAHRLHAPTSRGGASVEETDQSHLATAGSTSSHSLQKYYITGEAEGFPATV
Note: assay procedure not described here.

Sequence of Beta-2 adrenergic receptor (P07550 whole entry): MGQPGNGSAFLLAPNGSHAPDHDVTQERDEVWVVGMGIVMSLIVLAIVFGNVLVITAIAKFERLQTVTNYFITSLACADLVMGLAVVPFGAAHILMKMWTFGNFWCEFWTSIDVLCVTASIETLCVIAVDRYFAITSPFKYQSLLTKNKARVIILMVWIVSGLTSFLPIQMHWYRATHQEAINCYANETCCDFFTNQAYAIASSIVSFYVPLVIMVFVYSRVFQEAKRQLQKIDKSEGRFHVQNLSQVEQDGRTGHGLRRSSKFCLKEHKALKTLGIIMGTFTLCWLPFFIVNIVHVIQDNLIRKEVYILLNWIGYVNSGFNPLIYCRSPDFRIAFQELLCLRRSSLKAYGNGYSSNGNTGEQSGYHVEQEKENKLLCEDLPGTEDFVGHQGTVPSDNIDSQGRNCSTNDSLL
Sequence of Voltage-dependent L-type calcium channel subunit alpha-1C (P22002 whole entry): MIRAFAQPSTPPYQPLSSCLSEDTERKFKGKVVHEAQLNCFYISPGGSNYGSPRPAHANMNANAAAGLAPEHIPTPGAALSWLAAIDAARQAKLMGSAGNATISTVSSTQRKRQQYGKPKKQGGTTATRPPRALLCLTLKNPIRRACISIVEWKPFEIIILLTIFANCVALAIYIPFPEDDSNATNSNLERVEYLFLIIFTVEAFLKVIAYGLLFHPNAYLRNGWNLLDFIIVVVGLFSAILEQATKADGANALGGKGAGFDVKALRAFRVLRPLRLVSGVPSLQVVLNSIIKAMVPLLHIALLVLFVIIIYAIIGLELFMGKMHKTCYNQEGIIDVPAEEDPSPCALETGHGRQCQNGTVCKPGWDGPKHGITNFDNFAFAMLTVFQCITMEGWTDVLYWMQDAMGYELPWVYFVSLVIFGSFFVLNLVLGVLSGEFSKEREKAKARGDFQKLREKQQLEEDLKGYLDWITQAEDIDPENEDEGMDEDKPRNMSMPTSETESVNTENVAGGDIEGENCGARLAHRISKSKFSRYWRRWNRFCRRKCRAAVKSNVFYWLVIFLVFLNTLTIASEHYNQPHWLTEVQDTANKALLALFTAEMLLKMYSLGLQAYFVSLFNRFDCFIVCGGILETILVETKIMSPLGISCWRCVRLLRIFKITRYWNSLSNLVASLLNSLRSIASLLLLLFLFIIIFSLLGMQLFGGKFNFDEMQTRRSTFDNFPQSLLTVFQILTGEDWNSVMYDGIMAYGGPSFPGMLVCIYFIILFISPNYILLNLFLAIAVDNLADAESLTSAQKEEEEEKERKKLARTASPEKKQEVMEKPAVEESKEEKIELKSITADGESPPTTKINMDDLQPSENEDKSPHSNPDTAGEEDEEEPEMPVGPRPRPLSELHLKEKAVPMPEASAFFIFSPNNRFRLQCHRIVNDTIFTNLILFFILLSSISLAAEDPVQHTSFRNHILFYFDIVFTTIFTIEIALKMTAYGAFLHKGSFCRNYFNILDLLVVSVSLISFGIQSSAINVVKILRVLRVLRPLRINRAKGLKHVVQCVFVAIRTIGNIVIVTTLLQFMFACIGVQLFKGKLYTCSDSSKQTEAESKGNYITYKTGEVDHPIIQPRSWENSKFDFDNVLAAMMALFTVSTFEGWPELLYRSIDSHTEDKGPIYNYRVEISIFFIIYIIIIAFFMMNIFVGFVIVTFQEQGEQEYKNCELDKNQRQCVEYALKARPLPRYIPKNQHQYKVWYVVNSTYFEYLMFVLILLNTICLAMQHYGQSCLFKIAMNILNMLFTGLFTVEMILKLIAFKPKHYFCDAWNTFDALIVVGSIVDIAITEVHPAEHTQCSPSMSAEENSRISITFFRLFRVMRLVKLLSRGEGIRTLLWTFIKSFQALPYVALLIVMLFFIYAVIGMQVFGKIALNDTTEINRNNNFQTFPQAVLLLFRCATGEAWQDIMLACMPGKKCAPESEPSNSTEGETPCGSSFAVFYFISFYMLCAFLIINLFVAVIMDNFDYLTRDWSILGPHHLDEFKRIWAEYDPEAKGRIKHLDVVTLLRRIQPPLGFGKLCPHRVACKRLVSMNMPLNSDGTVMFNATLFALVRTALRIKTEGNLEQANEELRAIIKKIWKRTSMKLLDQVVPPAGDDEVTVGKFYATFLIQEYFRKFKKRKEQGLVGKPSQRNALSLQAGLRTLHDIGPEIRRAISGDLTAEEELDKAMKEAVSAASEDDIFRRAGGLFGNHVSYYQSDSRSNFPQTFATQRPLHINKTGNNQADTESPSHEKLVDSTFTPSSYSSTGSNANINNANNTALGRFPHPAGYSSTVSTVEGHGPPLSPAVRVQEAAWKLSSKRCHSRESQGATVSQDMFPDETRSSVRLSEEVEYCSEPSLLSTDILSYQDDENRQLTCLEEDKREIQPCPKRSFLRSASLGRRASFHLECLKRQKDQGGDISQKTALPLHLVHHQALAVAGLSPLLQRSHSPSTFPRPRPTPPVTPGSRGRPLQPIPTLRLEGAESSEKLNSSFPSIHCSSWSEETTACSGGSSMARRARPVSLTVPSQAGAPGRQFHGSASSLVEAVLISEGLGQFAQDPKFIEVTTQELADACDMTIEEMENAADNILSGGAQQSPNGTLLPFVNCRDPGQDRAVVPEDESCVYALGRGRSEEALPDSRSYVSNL

Structure (SMILES) | AC50 [1] [µM] | AC50 [2] [µM] | AC50 [3] [µM] | AC50 [4] [µM] | AC50 [5] [µM] | AC50 [6] [µM] | AC50 [7] [µM] | AC50 [8] [µM] | AC50 [9] [µM] | AC50 [10] [µM] | AC50 [11] [µM] | AC50 [12] [µM]
COc1ccc2c(c1)c(CC(=O)OCC(=O)O)c(C)n2C(=O)c1ccc(Cl)cc1 [ACEMETACIN] | > 30 | > 30 | > 30 | > 30 | > 30 | > 30 | > 30 | > 30 | > 30 | > 30 | > 30 | 
COc1ccc2cccc(CCNC(C)=O)c2c1 [AGOMELATINE] | > 10 | > 10 | > 30 |  | > 30 | > 10 | > 30 | > 10 | > 10 | > 30 | > 10 | > 30
CC(C)c1c(C(=O)Nc2ccccc2)c(-c2ccccc2)c(-c2ccc(F)cc2)n1CC[C@@H](O)C[C@@H](O)CC(=O)O [ATORVASTATIN] | > 10 | > 10 | > 30 |  | > 30 | > 10 | > 30 | > 30 | > 30 | > 30 | > 10 | 
CCCCN1CCCCC1C(=O)Nc1c(C)cccc1C (stereo unspecified) [BUPIVACAINE] | > 30 |  | > 30 | > 30 | > 30 | > 30 | > 30 | > 30 |  | > 30 | > 30 | 
CC(=O)O[C@@]12CO[C@@H]1C[C@H](O)[C@@]1(C)C(=O)[C@H](O)C3=C(C)[C@@H](OC(=O)[C@H](O)[C@@H](NC(=O)OC(C)(C)C)c4ccccc4)C[C@@](O)([C@@H](OC(=O)c4ccccc4)[C@H]21)C3(C)C [DOCETAXEL ANHYDROUS] | > 30 | > 30 |  | > 30 |  | > 30 | > 30 | > 30 | > 30 | > 30 | > 30 | > 30
CN[C@@H](C)[C@H](O)c1ccccc1 [EPHEDRINE] | > 10 | > 10 | > 30 |  | > 30 | > 10 | > 30 | > 10 | > 10 | > 30 | > 10 | > 30
CCNC(C)Cc1cccc(C(F)(F)F)c1 (stereo unspecified) [FENFLURAMINE] | > 10 |  | > 30 |  | > 30 | > 10 | > 30 | 8 |  | > 30 | > 10 | > 30
COc1c(N2CCNC(C)C2)c(F)cc2c(=O)c(C(=O)O)cn(C3CC3)c12 (stereo unspecified) [GATIFLOXACIN] | > 10 | > 10 |  | > 10 |  | > 10 | > 30 | > 30 | > 10 | > 10 | > 10 | 
CCN1CCC[C@H]1CNC(=O)c1cc(S(N)(=O)=O)ccc1OC [LEVOSULPIRIDE] | > 10 | > 30 | > 30 |  |  | > 10 | > 30 |  | > 30 | > 30 | > 10 | 
COc1ccccc1OCC(O)COC(N)=O (stereo unspecified) [METHOCARBAMOL] | > 10 | > 10 |  | > 30 |  | > 10 | > 30 | > 30 | > 10 | > 10 | > 10 | > 30
NC(=O)C[S+]([O-])C(c1ccccc1)c1ccccc1 (stereo unspecified) [MODAFINIL] | > 10 | > 10 | > 30 |  | > 30 | > 10 | > 10 | > 10 | > 10 | 21.2 | > 10 | > 30
CCN(CC)CCOC(=O)c1ccc(N)cc1 [PROCAINE] | > 10 | > 10 | > 30 |  |  | > 10 | 22 | > 30 | > 30 | > 30 | > 10 | 
CCCOc1ccc(C(=O)OCCN(CC)CC)cc1N [PROPARACAINE] |  |  | > 30 | > 30 | > 30 | > 30 | > 30 | > 30 | > 30 | > 30 | > 30 | 
C#CCN(C)[C@H](C)Cc1ccccc1 [SELEGILINE] | > 10 | > 10 | > 30 | > 10 |  | > 10 | > 30 | > 30 | > 10 | > 10 | > 10 | > 10
O=C1NCCN1CCN1CCC(c2cn(-c3ccc(F)cc3)c3ccc(Cl)cc23)CC1 [SERTINDOLE] | > 30 |  | > 30 | > 30 | > 30 | > 30 | > 30 |  | 2.7 | 12 | 4.3 | 
Cc1c(C(=O)Nc2ccc(N3C[C@@H](C)O[C@@H](C)C3)nc2)cccc1-c1ccc(OC(F)(F)F)cc1 [SONIDEGIB] | > 10 | > 10 |  |  | > 30 | > 10 | > 10 |  | > 10 | > 30 | > 10 | > 30
CN[C@@H]1[C@H](O)[C@H](NC)[C@H]2O[C@@]3(O)C(=O)C[C@@H](C)O[C@H]3O[C@@H]2[C@H]1O [SPECTINOMYCIN] | > 10 | > 10 |  | > 10 |  | > 10 | > 30 | > 30 | > 10 | > 10 | > 10 | > 10
